# Assay results from US20230203063A1, “TRICYCLIC PYRIDONES AND PYRIMIDONES” (Erasca, Inc., priority 2019, published 2023).
# Target: T1, mutant G12C K-RAS (Homo sapiens, UniProt P01116, G12C)
# T1 construct: made in house; host or cells: E. coli BL21
# Experiment: covalent adduct formation (CAF) with mutant G12C K-RAS
# Type: binding
# Set-up: covalent adduct formation (CAF): unit not given here
# Conditions: Table 6; 10 uM, 1 h
# Method: Embodiments disclosed herein are further illustrated by the following examples in Tables 1-4 and the Examples hereinbelow. The Tables indicate the compound number, structure, the observed mass spectral molecular weight peak, and covalent adduct formation (CAF) with a mutant G12C K-RAS after 60 minutes at a concentration of 10 micromolar.
row,SMILES,"% CAF @ 10 uM, 1 h"
1,"C=CC(=O)N1C[C@H](C)N(c2nc(=O)n3c4c(c(-c5ccc(F)cc5F)c(Cl)cc24)OC[C@H]3CCCN2C3CCC2CN(C)C3)C[C@H]1C [Example 321, (3R)-7-((2S,5R)-4-acryloyl-2,5-dimethylpiperazin-1-yl)-9-chloro-10-(2,4-difluorophenyl)-3-(3-(3-methyl-3,8-diazabicyclo[3.2.1]octan-8-yl)propyl)-2,3-dihydro-5H-[1,4]oxazino [2,3,4-ij] quinazolin-5-one]",71.2%
2,"C=CC(=O)N1C[C@H](C)N(c2nc(=O)n3c4c(c(-c5c(O)cccc5F)c(Cl)cc24)OC[C@H]3CN(C)CC(F)(F)F)C[C@H]1C (atropisomer, axis not shown) [Example 241, (3R,10R)-7-((2S,5R)-4-acryloyl-2,5-dimethylpiperazin-1-yl)-9-chloro-10-(2-fluoro-6-hydroxyphen-yl)-3-((methyl(2,2,2-trifluoroethyl)amino)-methyl)-2H-[1,4]-oxazino[2,3,4-ij]-quinazolin-5(3H)-one]",0%
3,"C=CC(=O)N1C[C@H](C)N(c2nc(=O)n3c4c(c(-c5c(O)cccc5F)c(Cl)cc24)OC[C@H]3CN2CCOCC2)C[C@H]1C (atropisomer, axis not shown) [Example 210, (3R,10R)-7-((2S,5R)-4-acryloyl-2,5-dimethyl-piperazin-1-yl)-9-chloro-10-(2-fluoro-6-hydroxyphenyl)-3-(morpholinomethyl)-2,3-dihydro-5H-[1,4]-oxazino-[2,3,4-ij]-quinazolin-5-one]",0%

# Same assay, conditions: Table 7; 10 micromolar, after 60 minutes
row,SMILES,covalent adduct formation (CAF)
1,"C=CC(=O)N1CCN(c2nc(=O)n3c4c(c(-c5ccc(F)cc5F)c(Cl)cc24)SC[C@H]3CC2CCN(C)CC2)[C@@H](C)C1 [Example 345, (3R)-7-((S)-4-acryloyl-2-methylpiperazin-1-yl)-9-chloro-10-(2,4-difluorophenyl)-3-((1-methylpiperidin-4-yl)-methyl)-2H-[1,4]-thiazino-[2,3,4-ij]-quinazolin-5(3H)-one]",82.4
2,"C=CC(=O)N1CCN(c2nc(=O)n3c4c(c(-c5ccc(F)cc5F)c(Cl)cc24)SC[C@H]3CN2CCN(CC)CC2)[C@@H](C)C1 [Example 346, (3R)-7-((S)-4-acryloyl-2-methylpiperazin-1-yl)-9-chloro-10-(2,4-difluorophenyl)-3-((4-ethylpiperazin-1-yl)-methyl)-2H-[1,4]-thiazino[2,3,4-ij]-quinazolin-5(3H)-one]",79.3
3,"C=CC(=O)N1CCN(c2nc(=O)n3c4c(c(-c5ccc(F)cc5F)c(Cl)cc24)SC[C@H]3COC)[C@@H](C)C1 [Example 130, (3R)-7-((S)-4-acryloyl-2-methylpiperazin-1-yl)-9-chloro-10-(2,4-difluorophenyl)-3-(methoxymethyl)-2,3-dihydro-5H-[1,4]thiazino[2,3,4-ij]quinazolin-5-one]",94.5
4,"C=CC(=O)N1CCN(c2nc(=O)n3c4c(c(-c5ccc(F)cc5F)c(Cl)cc24)SC(C)(C)C3)[C@@H](C)C1 [Example 76, 7-((S)-4-acryloyl-2-methylpiperazin-1-yl)-9-chloro-10-(2,4-difluorophenyl)-2,2-dimethyl-2,3-dihydro-5H-[1,4]thiazino[2,3,4-ij]quinazolin-5-one]",86.8
